Tests used:
[1] = molecular target: Sodium-dependent dopamine transporter (Homo sapiens, UniProt Q01959); assay: DRUGMATRIX: Dopamine Transporter radioligand binding (ligand: [125I] RTI-55); type: cell membranes, CHO-K1, Membrane; settings: cho-k1; Not Active = under 50% inhibition at 10 µM
[2] = molecular target: Sodium-dependent noradrenaline transporter (Homo sapiens, UniProt P23975); assay: DRUGMATRIX: Norepinephrine Transporter radioligand binding (ligand: [125I] RTI-55); type: cell membranes, MDCK, Membrane; settings: mdck; Not Active = under 50% inhibition at 10 µM
Sequence of Sodium-dependent noradrenaline transporter (P23975 whole entry): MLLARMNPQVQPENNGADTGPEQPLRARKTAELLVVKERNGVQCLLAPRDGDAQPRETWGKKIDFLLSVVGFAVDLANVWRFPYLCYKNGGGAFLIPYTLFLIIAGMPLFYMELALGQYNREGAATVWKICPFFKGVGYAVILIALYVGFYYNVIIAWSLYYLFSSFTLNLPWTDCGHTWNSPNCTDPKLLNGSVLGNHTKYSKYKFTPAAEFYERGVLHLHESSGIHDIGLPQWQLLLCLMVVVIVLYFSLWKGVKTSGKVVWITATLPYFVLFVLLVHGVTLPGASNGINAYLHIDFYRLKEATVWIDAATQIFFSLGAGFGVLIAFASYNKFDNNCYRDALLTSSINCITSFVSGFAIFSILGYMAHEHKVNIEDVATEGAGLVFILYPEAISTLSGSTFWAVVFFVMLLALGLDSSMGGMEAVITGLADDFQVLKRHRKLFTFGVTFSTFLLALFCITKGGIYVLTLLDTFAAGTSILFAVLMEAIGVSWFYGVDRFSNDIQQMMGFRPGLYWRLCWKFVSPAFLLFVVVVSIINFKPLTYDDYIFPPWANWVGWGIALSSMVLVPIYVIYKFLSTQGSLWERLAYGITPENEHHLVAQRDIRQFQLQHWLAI

Leukotriene C4 synthase = molecular target: T1, Leukotriene C4 synthase (Cavia porcellus, UniProt A6XA80); type: tissue-based, Lung;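 further: enzyme inhibition assay of leukotriene C4 synthase, using LTA4 as the substrate; in other assays of this panel Not Active means under 50% inhibition at 10 µM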
T1 sequence (A6XA80 whole entry): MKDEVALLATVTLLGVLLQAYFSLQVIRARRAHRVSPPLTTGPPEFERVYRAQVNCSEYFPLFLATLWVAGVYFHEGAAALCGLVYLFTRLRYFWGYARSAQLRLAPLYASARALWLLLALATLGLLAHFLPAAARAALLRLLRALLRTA

[3] = DRUGMATRIX: Tumor Necrosis Factor (TNF), Non-Selective radioligand binding (ligand: [125I] TNF-alpha); type: cell membranes, Membrane; settings: u-937; Not Active = under 50% inhibition at 10 µM
[4] = molecular target: Platelet-activating factor receptor (Homo sapiens, UniProt P25105); type: tissue-based; further: in other assays of this panel Not Active means under 50% inhibition at 10 µM
Sequence of Platelet-activating factor receptor (P25105 whole entry): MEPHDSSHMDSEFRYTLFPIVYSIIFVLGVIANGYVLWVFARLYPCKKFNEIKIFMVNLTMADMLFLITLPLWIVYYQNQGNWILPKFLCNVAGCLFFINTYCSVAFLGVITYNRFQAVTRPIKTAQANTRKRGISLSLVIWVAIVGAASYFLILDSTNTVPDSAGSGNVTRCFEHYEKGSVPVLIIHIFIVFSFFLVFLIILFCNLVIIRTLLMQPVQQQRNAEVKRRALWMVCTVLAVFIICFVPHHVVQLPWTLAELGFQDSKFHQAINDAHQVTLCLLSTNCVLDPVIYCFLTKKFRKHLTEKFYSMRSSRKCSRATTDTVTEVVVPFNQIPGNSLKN

[5] = molecular target: 5-hydroxytryptamine receptor 2B (Homo sapiens, UniProt P41595); type: cell membranes, CHO-K1, Membrane; settings: cho-k1; further: in other assays of this panel Not Active means under 50% inhibition at 10 µM
Sequence of 5-hydroxytryptamine receptor 2B (P41595 whole entry): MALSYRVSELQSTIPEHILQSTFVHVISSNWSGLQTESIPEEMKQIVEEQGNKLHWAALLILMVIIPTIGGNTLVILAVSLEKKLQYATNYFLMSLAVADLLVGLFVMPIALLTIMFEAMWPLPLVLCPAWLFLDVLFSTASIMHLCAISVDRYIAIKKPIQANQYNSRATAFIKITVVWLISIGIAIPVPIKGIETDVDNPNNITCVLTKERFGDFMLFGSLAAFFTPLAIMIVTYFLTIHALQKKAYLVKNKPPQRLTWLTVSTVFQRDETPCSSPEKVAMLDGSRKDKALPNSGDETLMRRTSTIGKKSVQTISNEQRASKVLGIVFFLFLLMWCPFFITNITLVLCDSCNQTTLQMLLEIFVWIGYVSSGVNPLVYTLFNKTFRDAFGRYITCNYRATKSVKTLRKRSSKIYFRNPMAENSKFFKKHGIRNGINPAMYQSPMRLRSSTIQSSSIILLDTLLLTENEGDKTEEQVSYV

Cytochrome P450 2A6 = molecular target: T2, Cytochrome P450 2A6 (Homo sapiens, UniProt P11509); settings: bti-tn-5b1-4; further: in other assays of this panel Not Active means under 50% inhibition at 10 µM
T2 sequence (P11509 whole entry): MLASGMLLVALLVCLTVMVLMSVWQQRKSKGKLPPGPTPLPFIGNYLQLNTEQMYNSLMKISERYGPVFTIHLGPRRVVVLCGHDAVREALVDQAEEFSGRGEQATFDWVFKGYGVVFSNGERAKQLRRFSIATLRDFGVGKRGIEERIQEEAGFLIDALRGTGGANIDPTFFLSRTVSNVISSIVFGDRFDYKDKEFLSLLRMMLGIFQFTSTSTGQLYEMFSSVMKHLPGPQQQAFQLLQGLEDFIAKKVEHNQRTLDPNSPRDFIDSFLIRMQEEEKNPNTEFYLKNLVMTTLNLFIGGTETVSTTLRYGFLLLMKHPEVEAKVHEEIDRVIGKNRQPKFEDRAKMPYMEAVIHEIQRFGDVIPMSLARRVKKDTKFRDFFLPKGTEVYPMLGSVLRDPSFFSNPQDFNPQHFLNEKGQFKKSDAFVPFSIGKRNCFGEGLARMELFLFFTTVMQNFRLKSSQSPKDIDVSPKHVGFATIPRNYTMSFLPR

Sequence of Sodium-dependent dopamine transporter (Q01959 whole entry): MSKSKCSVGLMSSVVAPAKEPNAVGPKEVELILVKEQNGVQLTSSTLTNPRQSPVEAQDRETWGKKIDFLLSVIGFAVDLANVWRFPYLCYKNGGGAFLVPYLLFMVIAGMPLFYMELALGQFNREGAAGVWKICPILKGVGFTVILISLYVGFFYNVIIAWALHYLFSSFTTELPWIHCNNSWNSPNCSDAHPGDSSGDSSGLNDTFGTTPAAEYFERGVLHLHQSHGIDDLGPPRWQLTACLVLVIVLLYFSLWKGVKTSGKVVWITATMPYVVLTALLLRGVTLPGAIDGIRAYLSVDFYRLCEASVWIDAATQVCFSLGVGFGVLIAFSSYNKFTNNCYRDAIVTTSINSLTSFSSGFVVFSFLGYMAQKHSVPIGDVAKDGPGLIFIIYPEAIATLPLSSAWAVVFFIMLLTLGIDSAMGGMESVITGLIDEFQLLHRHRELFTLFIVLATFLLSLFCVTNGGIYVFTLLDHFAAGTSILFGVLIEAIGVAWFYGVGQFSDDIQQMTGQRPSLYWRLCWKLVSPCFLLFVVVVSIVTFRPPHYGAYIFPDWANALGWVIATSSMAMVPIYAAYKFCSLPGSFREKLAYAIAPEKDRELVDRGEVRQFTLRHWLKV

CCCN(CCC)S(=O)(=O)c1ccc(C(=O)O)cc1 [PROBENECID]
Not Active: IC50 [1] | IC50 [2] | IC50 (Leukotriene C4 synthase) | IC50 [3] | Ki [3] | IC50 [4] | IC50 [5] | IC50 (Cytochrome P450 2A6) | Ki (Cytochrome P450 2A6)

C#CC1(O)CC[C@H]2[C@@H]3CCC4=CC(=O)CC[C@@H]4[C@H]3CC[C@@]21CC (some centres not stated) [NORGESTREL]
Not Active: IC50 [1] | IC50 [2] | IC50 (Leukotriene C4 synthase) | IC50 [3] | Ki [3] | IC50 [4] | IC50 [5] | IC50 (Cytochrome P450 2A6) | Ki (Cytochrome P450 2A6)

CC[C@H]1CN2CCc3cc(OC)c(OC)cc3[C@@H]2C[C@@H]1C[C@H]1NCCc2cc(OC)c(OC)cc21 [EMETINE]
Not Active: IC50 [1] | IC50 [2] | IC50 (Leukotriene C4 synthase) | IC50 [3] | Ki [3] | IC50 [4] | IC50 [5] | IC50 (Cytochrome P450 2A6) | Ki (Cytochrome P450 2A6)
